The format of data set [1] is physicochemical. The method, then: Samples (S1, S2 and S3) were stored at 54° C. for 1 month, 3 months and 6 months. The procedures were followed according to CIPAC MT 46.3. The concentration of Pyroxasulfone was measured at the end of each storage time by HPLC. The aggregation was measured by observation. The original concentration of Pyroxasulfone in each formulation was 40%.

Data set [2] can be described thus: Dispersibility test of water dispersible granules (WG). It is filed as physicochemical. Conditions: summary of Table 4. The method, then:
0.3077 g of calcium carbonate and 0.092 g of magnesium oxide were dissolved in a small amount of diluted hydrochloric acid, then heated and boiled on a sand bath to remove hydrochloric acid. Distilled water was added to the remaining solution to make 10 liters in total. Subsequently, 100 ml of the obtained solution was put into a 100 ml stoppered measuring cylinder, and kept at 20° C. in a temperature-controlled room. 100 mg samples of S4 to S6 were put into the measuring cylinder, and left to stand for 30 seconds. The measuring cylinder was then turned upside down repeatedly at a rate of once a second, whereupon the turning-down frequency (number of turns) needed for disintegrating the whole water-dispersible material was counted.

This is an account of results in patent US20220256852A1, “NOVEL CRYSTALLINE FORM OF PYROXASULFONE, METHODS FOR ITS PREPARATION AND USE OF THE SAME” (ROTAM AGROCHEM INTERNATIONAL COMPANY LIMITED, priority 2021, published 2022).

Turning to `Cn1nc(C(F)(F)F)c(CS(=O)(=O)C2=NOC(C)(C)C2)c1OC(F)F` [3-[[[5-(difluoromethoxy)-1-methyl-3-(trifluoromethyl)-1H-pyrazol-4-yl]methyl]sulfonyl]-4,5-dihydro-5,5-dimethylisoxazole], the “storage stability compared with amorphous Pyroxasulfone” value in data set [1] was “significantly higher storage stability”. Besides, in data set [1] (summary of Table 5), the “tendency to aggregate during storage” value is on record as “significantly lower tendency to aggregate”. Moreover, the “dispersibility compared with amorphous Pyroxasulfone” value in data set [2] is listed as “significantly higher dispersibility”.
